Experimental data as given in PubChem BioAssay AID248 (DTP/NCI, 2004).
Values joined by “and” are separate entries in the source; they are usually repeats but may differ in a detail not shown here. Identical values can stand only once. Inconclusive results and toxic doses are left out. No stated cut-off is given here; in the data, active means T/C of 150% or more; inactive means T/C below 125%.

System: L1210 leukemia ip in BDF1 mice, survival T/C
Assay: NCI In Vivo Anticancer Drug Screen. Data for tumor model L1210 Leukemia (intraperitoneal) in B6D2F1 (BDF1) mice
Conditions: endpoint: mean survival time, higher = longer survival
In short: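 In this screen, tumor-bearing mice given compound are compared to those given vehicle, and their survival values are reported as a treated-to-control quotient.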

[1] = dose: 100.0 mg/kg/injection, schedule: Q01DX001 (ip), vehicle: Klucel (hydroxypropylcellulose) (HPC)
[2] = dose: 200.0 mg/kg/injection, schedule: Q01DX001 (ip), vehicle: Klucel (hydroxypropylcellulose) (HPC)
[3] = dose: 400.0 mg/kg/injection, schedule: Q01DX001 (ip), vehicle: Klucel (hydroxypropylcellulose) (HPC)
[4] = dose: 100.0 mg/kg/injection, schedule: Q01DX009 (ip), vehicle: saline with Tween-80
[5] = dose: 100.0 mg/kg/injection, schedule: Q04DX003 (ip), vehicle: saline with Tween-80
[6] = dose: 200.0 mg/kg/injection, schedule: Q01DX009 (ip), vehicle: saline with Tween-80
[7] = dose: 200.0 mg/kg/injection, schedule: Q04DX003 (ip), vehicle: saline with Tween-80
[8] = dose: 100.0 mg/kg/injection, schedule: Q01DX009 (ip), vehicle: Klucel (hydroxypropylcellulose) (HPC)
[9] = dose: 200.0 mg/kg/injection, schedule: Q01DX009 (ip), vehicle: Klucel (hydroxypropylcellulose) (HPC)
[10] = dose: 400.0 mg/kg/injection, schedule: Q01DX009 (ip), vehicle: Klucel (hydroxypropylcellulose) (HPC)
[11] = dose: 100.0 mg/kg/injection, schedule: Q01DX001 (ip), vehicle: saline with Tween-80
[12] = dose: 200.0 mg/kg/injection, schedule: Q01DX001 (ip), vehicle: saline with Tween-80
[13] = dose: 400.0 mg/kg/injection, schedule: Q01DX001 (ip), vehicle: saline with Tween-80

Measured: T/C

Cc1ncc(CO)n1Cc1ccccc1
inactive: [1] 104 % of control | [2] 104 % of control | [3] 114 % of control

CC1(C)N=C(N)N=C(N)N1c1cccc(OCCCOc2ccc(NC(=O)CBr)cc2)c1
inactive: dose: 45.0 mg/kg/injection, schedule: Q01DX009 (ip), vehicle: saline 104 % of control | dose: 67.0 mg/kg/injection, schedule: Q01DX009 (ip), vehicle: saline 104 % of control | dose: 100.0 mg/kg/injection, schedule: Q01DX001 (ip), vehicle: saline 110 % of control | dose: 100.0 mg/kg/injection, schedule: Q01DX009 (ip), vehicle: saline 102 % of control | dose: 200.0 mg/kg/injection, schedule: Q01DX001 (ip), vehicle: saline 97 % of control

Cc1ccc(NC(=O)C2C3CC4OC(=O)C2C4C3)cc1 (stereo not given)
inactive: dose: 100.0 mg/kg/injection, schedule: Q04DX003 (ip), vehicle: saline 102 % of control | dose: 200.0 mg/kg/injection, schedule: Q04DX003 (ip), vehicle: saline 108 % of control | dose: 400.0 mg/kg/injection, schedule: Q04DX003 (ip), vehicle: saline 111 % of control

CCOC(=O)Cc1cnc(SC)nc1Cl
inactive: dose: 50.0 mg/kg/injection, schedule: Q01DX009 (ip), vehicle: saline with Tween-80 98 % of control | [4] 91 % of control | [5] 92 % of control | [6] 88 % of control | [7] 92 % of control

CC12C3C(=O)NC45CCCC41C5(c1ccccc1)C32c1ccccc1 (stereo not given)
inactive: [1] 96 % of control | [2] 96 % of control | [3] 94 % of control

OC1c2ccccc2-c2ccc(N(Cc3ccccc3)Cc3ccccc3)cc21 (stereo not given)
inactive: [7] 87 % of control

Cc1ccc2c3nc4ccccc4c-3csc2c1
inactive: dose: 6.25 mg/kg/injection, schedule: Q01DX009 (ip), vehicle: saline 103 % of control | dose: 12.5 mg/kg/injection, schedule: Q01DX009 (ip), vehicle: saline 108 % of control and 103 % of control | dose: 12.5 mg/kg/injection, schedule: Q04DX003 (ip), vehicle: saline 93 % of control and 92 % of control | dose: 25.0 mg/kg/injection, schedule: Q01DX009 (ip), vehicle: saline 98 % of control and 93 % of control | dose: 25.0 mg/kg/injection, schedule: Q04DX003 (ip), vehicle: saline 93 % of control and 90 % of control | dose: 35.0 mg/kg/injection, schedule: Q01DX009 (ip), vehicle: saline 101 % of control and 86 % of control | dose: 50.0 mg/kg/injection, schedule: Q04DX003 (ip), vehicle: saline 87 % of control | dose: 55.0 mg/kg/injection, schedule: Q01DX009 (ip), vehicle: saline 93 % of control and 92 % of control

CCCP(=S)(C(C)C)C(C)C
inactive: [5] 103 % of control

CCCCC(=O)c1cc(OC)cc(OC)c1
inactive: dose: 50.0 mg/kg/injection, schedule: Q01DX001 (ip), vehicle: other 109 % of control | [1] 95 % of control | dose: 100.0 mg/kg/injection, schedule: Q01DX001 (ip), vehicle: other 102 % of control | [8] 97 % of control | [2] 95 % of control | dose: 200.0 mg/kg/injection, schedule: Q01DX001 (ip), vehicle: other 104 % of control | [9] 96 % of control | [3] 98 % of control | dose: 400.0 mg/kg/injection, schedule: Q01DX001 (ip), vehicle: other 91 % of control | [10] 100 % of control

CCOC(=O)C(C(=N)C#N)C(C)=O (stereo not given)
inactive: dose: 6.25 mg/kg/injection, schedule: Q04DX003 (ip), vehicle: saline with Tween-80 98 % of control | dose: 12.5 mg/kg/injection, schedule: Q04DX003 (ip), vehicle: saline with Tween-80 98 % of control | dose: 25.0 mg/kg/injection, schedule: Q04DX003 (ip), vehicle: saline with Tween-80 97 % of control | dose: 50.0 mg/kg/injection, schedule: Q04DX003 (ip), vehicle: saline with Tween-80 88 % of control | [5] 103 % of control

CC1(C(=O)O)OCCO1
inactive: [4] 94 % of control | [6] 90 % of control

CC(=O)C(CCC#N)(CCC#N)C(C)=O
inactive: dose: 50.0 mg/kg/injection, schedule: Q04DX002 (ip), vehicle: Klucel (hydroxypropylcellulose) (HPC) 101 % of control | dose: 100.0 mg/kg/injection, schedule: Q04DX002 (ip), vehicle: Klucel (hydroxypropylcellulose) (HPC) 95 % of control and 105 % of control | dose: 200.0 mg/kg/injection, schedule: Q04DX002 (ip), vehicle: Klucel (hydroxypropylcellulose) (HPC) 100 % of control | dose: 400.0 mg/kg/injection, schedule: Q04DX002 (ip), vehicle: Klucel (hydroxypropylcellulose) (HPC) 97 % of control and 86 % of control

CC#CCC(N)C(=O)O (stereo not given)
inactive: dose: 75.0 mg/kg/injection, schedule: Q01DX001 (ip), vehicle: carboxymethylcellulose (CMC) 109 % of control | dose: 80.0 mg/kg/injection, schedule: Q01DX009 (ip), vehicle: saline 105 % of control | dose: 150.0 mg/kg/injection, schedule: Q01DX001 (ip), vehicle: carboxymethylcellulose (CMC) 103 % of control | dose: 160.0 mg/kg/injection, schedule: Q01DX009 (ip), vehicle: saline 106 % of control | dose: 300.0 mg/kg/injection, schedule: Q01DX001 (ip), vehicle: carboxymethylcellulose (CMC) 118 % of control | dose: 320.0 mg/kg/injection, schedule: Q01DX009 (ip), vehicle: saline 94 % of control

CSc1nnc(-c2ccc(OCCOc3ccc(C(C)(C)CC(C)(C)C)cc3)cc2)s1
inactive: [5] 89 % of control | [7] 94 % of control | dose: 400.0 mg/kg/injection, schedule: Q04DX003 (ip), vehicle: saline with Tween-80 91 % of control

Nc1ncnc2nc(-c3ccc(CNC(=O)CCc4ccc(S(=O)(=O)F)cc4)cc3)[nH]c12
inactive: [11] 89 % of control | [12] 89 % of control | [13] 89 % of control

CCOC(=O)C1CCc2c(ccc3ccccc23)N1 (stereo not given)
inactive: dose: 50.0 mg/kg/injection, schedule: Q01DX001 (ip), vehicle: carboxymethylcellulose (CMC) 100 % of control | dose: 50.0 mg/kg/injection, schedule: Q01DX009 (ip), vehicle: carboxymethylcellulose (CMC) 102 % of control and 91 % of control | dose: 50.0 mg/kg/injection, schedule: Q04DX002 (ip), vehicle: carboxymethylcellulose (CMC) 100 % of control and 106 % of control | dose: 50.0 mg/kg/injection, schedule: Q04DX003 (ip), vehicle: carboxymethylcellulose (CMC) 105 % of control | dose: 100.0 mg/kg/injection, schedule: Q01DX001 (ip), vehicle: carboxymethylcellulose (CMC) 105 % of control | dose: 100.0 mg/kg/injection, schedule: Q01DX009 (ip), vehicle: carboxymethylcellulose (CMC) 94 % of control and 112 % of control | dose: 100.0 mg/kg/injection, schedule: Q04DX002 (ip), vehicle: carboxymethylcellulose (CMC) 100 % of control and 106 % of control | dose: 100.0 mg/kg/injection, schedule: Q04DX003 (ip), vehicle: carboxymethylcellulose (CMC) 107 % of control | dose: 200.0 mg/kg/injection, schedule: Q01DX001 (ip), vehicle: carboxymethylcellulose (CMC) 103 % of control | dose: 200.0 mg/kg/injection, schedule: Q01DX009 (ip), vehicle: carboxymethylcellulose (CMC) 94 % of control and 102 % of control | dose: 200.0 mg/kg/injection, schedule: Q04DX002 (ip), vehicle: carboxymethylcellulose (CMC) 97 % of control and 102 % of control | dose: 200.0 mg/kg/injection, schedule: Q04DX003 (ip), vehicle: carboxymethylcellulose (CMC) 96 % of control

O=c1ccn(Cc2cccc(Oc3ccccc3)c2)c(=O)[nH]1
inactive: [11] 92 % of control | [12] 93 % of control | [13] 92 % of control

CCCCSCCOC(=O)Nc1ccc(Cl)cc1
inactive: [8] 103 % of control | [9] 108 % of control | [10] 92 % of control
